SMILES strings stand for the structures.

One assay deals with Nrf2 (Keap1-NRF2 nuclear translocation). Put plainly: U2OS translocation assay (PathHunter U2OS Keap1-NRF2 Nuclear Translocation Cell Line). The class given is cell-based. Particulars: Homo sapiens, U2OS, 3 h, read-out: CELLULAR U2OS EC50 (nM), U2OS Keap1-NRF2 nuclear translocation cells, 3 h incubation, luminescence, normalized between 1% DMSO and 10 μM andrographolide. The procedure: EXAMPLE 84: U2OS—TRANSLOCATION ASSAY
U2OS cell have been stably transduced using MMLV-derived retroviral vector, to overexpress Nrf2-Enzyme Donor fusion protein, and Acceptor Enzyme in the nucleus (PathHunter® U2OS Keap1-NRF2 Nuclear Translocation Cell Line, Ref.93-0821C3, DiscoverX).
PathHunter U2OS cells were grown in Minimum Essential Medium (MEM) (Ref.30-2003, ATCC), 10% FBS (Ref.P30-193306, PanBiotech), 500 μg/ml Geneticine, 250 μg/ml hygromycine, 0.25 μg/ml puromycine (10131-027, 10687-010 and Ref.A1113802 respectively, Life Technologies).
The night before experiment, cells were harvested using Tryple Xpress (Ref.126905, Bibco) for 5 min at 37° C., resuspended in Opti-MEM™ (Ref.31985-047, Gibco), 1% FBS (Ref.P30-193306, PanBiotech) and then plated into 384 wells plates (Ref.6007680, Perkin Elmer) at the density of 7 500 cells/well in 20 μl. Cell are stored over night at 37° C., 5% CO2 until used. Compounds in 100% DMSO (0.315 μl/well) were resuspended in 20 μl MEM, 1% FBS, 3.4% DMSO. Compounds and andrographolide (10 μM final concentration; Ref.365645-500MG, Aldrich)) as positive control, were dispensed on cell, 5 μl /well, and then incubated for 3 h at 37° C. and 5% CO2. After incubation, Path hunter reagents were dispensed on cells (12 μl /well, Ref.93-0001, DiscoverX) and incubated for 60 min at room temperature in the dark.
Then, luminescence signal was measured using multimodal reader (Pherastar, BMG Labtech). Data were normalized between 1% DMSO (basal signal) and 10 μM andrographolide (positive signal) and analyzed using Activity Base software.
By EC50 is commonly meant the midpoint of the concentration-response curve. On to `COc1ccc2cc1[C@H](C)N1Cc3cc(ccc3OS1(=O)=O)OCCCCn1nnc3c(C)c(ccc31)[C@@H]2CC(=O)O` [Example 28c, [(2S,8R)-4-Methoxy-2,31-dimethyl-27,27-dioxo-21,26-dioxa-27λ^6-thia-1,14,15,16-tetraazahexacyclo[20.5.3.1^3,70.1^9,130.0^12,160.0^25,29]dotriaconta-3(32),4,6,9(31),10,12,14,22,24,29-decaen-8-yl]acetic acid], for which the EC50 was > 3160 nM. Still for that read-out and setting: under `COc1ccc2cc1[C@H](C)N1Cc3cc(ccc3OS1(=O)=O)OCCCCn1nnc3c(C)c(ccc31)[C@H]2CC(=O)O` [Example 28d, [(2S,8S)-4-methoxy-2,31-dimethyl-27,27-dioxo-21,26-dioxa-27λ^6-thia-1,14,15,16-tetraazahexacyclo[20.5.3.1^3,70.1^9,130.0^12,160.0^25,29]dotriaconta-3(32),4,6,9(31),10,12,14,22,24,29-decaen-8-yl]acetic acid] stands 879 nM.

The assay is the same for the next values; noted with them: read-out: CELLULAR U2OS EC50; U2OS Keap1-NRF2 nuclear translocation cells, 3 h incubation, luminescence, normalized between 1% DMSO and 10 μM andrographolide.
Take `Cc1ccc2cc1CN1Cc3cc(ccc3OS1(=O)=O)OCc1ccccc1SCCCn1nnc3c(C)c(ccc31)C2CC(=O)O` (single isomer, unassigned) [Example 67a, [4,38-Dimethyl-34,34-dioxo-28,33-dioxa-20,34λ^6-dithia-1,14,15,16-tetraazaheptacyclo[27.5.3.1^3,70.1^9,130.0^12,160.0^21,260.0^32,36]nonatriaconta-3(39),4,6,9(38),10,12,14,21,23,25,29,31,36-tridecaen-8-yl]acetic acid]: the EC50 worked out at 554 nM. For the compound `Cc1ccc2cc1CN1Cc3cc(ccc3OS1(=O)=O)OCc1ccccc1SCCCn1nnc3c(C)c(ccc31)C2CC(=O)O` (single isomer, unassigned) [Example 67b, [4,38-Dimethyl-34,34-dioxo-28,33-dioxa-20,34λ^6-dithia-1,14,15,16-tetraazaheptacyclo[27.5.3.1^3,70.1^9,130.0^12,160.0^21,260.0^32,36]nonatriaconta-3(39),4,6,9(38),10,12,14,21,23,25,29,31,36-tridecaen-8-yl]acetic acid], the EC50 is > 3160 nM.

For `Cc1ccc2cc1CN1Cc3cc(ccc3OS1(=O)=O)Oc1ccccc1NCCn1nnc3c(C)c(ccc31)C2CC(=O)O` (single isomer, unassigned) [Example 70a, [4,36-Dimethyl-32,32-dioxo-26,31-dioxa-32λ^6-thia-1,14,15,16,19-pentaazaheptacyclo[25.5.3.1^3,70.1^9,130.0^12,160.0^20,250.0^30,34]heptatriaconta-3(37),4,6,9(36),10,12,14,20,22,24,27,29,34-tridecaen-8-yl]acetic acid], the EC50 amounted to 306 nM. As to `Cc1ccc2cc1CN1Cc3cc(ccc3OS1(=O)=O)Oc1ccccc1NCCn1nnc3c(C)c(ccc31)C2CC(=O)O` (single isomer, unassigned) [Example 70b, [4,36-Dimethyl-32,32-dioxo-26,31-dioxa-32λ^6-thia-1,14,15,16,19-pentaazaheptacyclo[25.5.3.1^3,70.1^9,130.0^12,160.0^20,250.0^30,34]heptatriaconta-3(37),4,6,9(36),10,12,14,20,22,24,27,29,34-tridecaen-8-yl]acetic acid], the EC50 is > 3160 nM.

As for `Cc1ccc2cc1CN1Cc3cc(ccc3OS1(=O)=O)OCCCCn1nnc3c(C)c(ccc31)C2C(C)(C)C(=O)O` (single isomer, unassigned) [Example 74a, 2-[4,31-Dimethyl-27,27-dioxo-21,26-dioxa-27λ^6-thia-1,14,15,16-tetraazahexacyclo[20.5.3.1^3,70.1^9,130.0^12,160.0^25,29]dotriaconta-3(32),4,6,9(31),10,12,14,22,24,29-decaen-8-yl]-2-methylpropanoic acid], the EC50 was 6.11 nM.

`Cc1ccc2cc1CN1Cc3cc(ccc3OS1(=O)=O)OCCCCn1nnc3c(C)c(ccc31)C2C(C)(C)C(=O)O` (single isomer, unassigned) [Example 74b, 2-[4,31-Dimethyl-27,27-dioxo-21,26-dioxa-27λ^6-thia-1,14,15,16-tetraazahexacyclo[20.5.3.1^3,70.1^9,130.0^12,160.0^25,29]dotriaconta-3(32),4,6,9(31),10,12,14,22,24,29-decaen-8-yl]-2-methylpropanoic acid]: the EC50 turned out to be 756 nM. The same measure, in the same setting: under `Cc1ccc2cc1CN1Cc3c(ccc(c3Cl)OCCOCCn3nnc4c(C)c(ccc43)C2CC(=O)O)OS1(=O)=O` (single isomer, unassigned) [Example 76a, [31-Chloro-4,32-dimethyl-28,28-dioxo-19,22,27-trioxa-28λ^6-thia-1,14,15,16-tetraazahexacyclo[21.5.3.1^3,70.1^9,130.0^12,160.0^26,30]tritriaconta-3(33),4,6,9(32),10,12,14,23,25,30-decaen-8-yl]acetic acid] stands 7.5 nM; under `Cc1ccc2cc1CN1Cc3c(ccc(c3Cl)OCCOCCn3nnc4c(C)c(ccc43)C2CC(=O)O)OS1(=O)=O` (single isomer, unassigned) [Example 76b, [31-Chloro-4,32-dimethyl-28,28-dioxo-19,22,27-trioxa-28λ^6-thia-1,14,15,16-tetraazahexacyclo[21.5.3.1^3,70.1^9,130.0^12,160.0^26,30]tritriaconta-3(33),4,6,9(32),10,12,14,23,25,30-decaen-8-yl]acetic acid], 26.2 nM; under `Cc1ccc2cc1CN1Cc3cc(ccc3OS1(=O)=O)OCCOCCn1nnc3c(C)c(ccc31)C2CC(=O)O` (single isomer, unassigned) [Example 78a, [4,32-Dimethyl-28,28-dioxo-19,22,27-trioxa-28λ^6-thia-1,14,15,16-tetraazahexacyclo[21.5.3.1^3,70.1^9,130.0^12,160.0^26,30]tritriaconta-3(33),4,6,9(32),10,12,14,23,25,30-decaen-8-yl]acetic acid], 69 nM. On the same count and under the same terms, the figure for `Cc1ccc2cc1CN1Cc3cc(ccc3OS1(=O)=O)OCCOCCn1nnc3c(C)c(ccc31)C2CC(=O)O` (single isomer, unassigned) [Example 78b, [4,32-Dimethyl-28,28-dioxo-19,22,27-trioxa-28λ^6-thia-1,14,15,16-tetraazahexacyclo[21.5.3.1^3,70.1^9,130.0^12,160.0^26,30]tritriaconta-3(33),4,6,9(32),10,12,14,23,25,30-decaen-8-yl]acetic acid] is 873 nM; for `Cc1ccc2cc1CN1Cc3cc(ccc3OS1(=O)=O)OCCCCn1nnc3c(C)c(ccc31)C2C(C)(C)C(=O)Nc1cncnc1` (single isomer, unassigned) [Example 81a, 2-[4,31-Dimethyl-27,27-dioxido-21,26-dioxa-27-thia-1,14,15,16-tetraazahexacyclo[20.5.3.1^3,70.1^9,130.0^12,160.0^25,29]dotriaconta-3(32),4,6,9(31),10,12,14,22,24,29-decaen-8-yl]-2-methyl-N-(pyrimidin-5-yl)propanamide] it is 275 nM. Still for that read-out and setting: the figure for `Cc1ccc2cc1CN1Cc3cc(ccc3OS1(=O)=O)OCCCCn1nnc3c(C)c(ccc31)C2C(C)(C)C(=O)Nc1cncnc1` (single isomer, unassigned) [Example 81b, 2-[4,31-Dimethyl-27,27-dioxido-21,26-dioxa-27-thia-1,14,15,16-tetraazahexacyclo[20.5.3.1^3,70.1^9,130.0^12,160.0^25,29]dotriaconta-3(32),4,6,9(31),10,12,14,22,24,29-decaen-8-yl]-2-methyl-N-(pyrimidin-5-yl)propanamide] is > 3160 nM; for `Cc1ccc2cc1CN1Cc3cc(ccc3OS1(=O)=O)OCCCCn1nnc3c(C)c(ccc31)C2C(C)(C)C(=O)Nc1cccnc1` (single isomer, unassigned) [Example 82a, 2-[4,31-Dimethyl-27,27-dioxo-21,26-dioxa-27λ^6-thia-1,14,15,16-tetraazahexacyclo[20.5.3.1^3,70.1^9,130.0^12,160.0^25,29]dotriaconta-3(32),4,6,9(31),10,12,14,22,24,29-decaen-8-yl]-2-methyl-N-(pyridin-3-yl)propanamide] it is 635 nM; for `Cc1ccc2cc1CN1Cc3cc(ccc3OS1(=O)=O)OCCCCn1nnc3c(C)c(ccc31)C2C(C)(C)C(=O)Nc1cccnc1` (single isomer, unassigned) [Example 82b, 2-[4,31-Dimethyl-27,27-dioxo-21,26-dioxa-27λ^6-thia-1,14,15,16-tetraazahexacyclo[20.5.3.1^3,70.1^9,130.0^12,160.0^25,29]dotriaconta-3(32),4,6,9(31),10,12,14,22,24,29-decaen-8-yl]-2-methyl-N-(pyridin-3-yl)propanamide] it is > 3160 nM.

The values are drawn from patent publication US12643912B2, “Macrocyclic compounds, a process for their preparation and pharmaceutical compositions containing them” (LES LABORATOIRES SERVIER, priority 2020, dated 2026).
